Source: patent US10118943B2, “Compounds and methods for inhibiting cell death” (Ramot at Tel-Aviv University Ltd., priority 2012, dated 2018)
“Also recorded” adds a separate entry of the source.

How the values were obtained:
primary cortical neurons = assay: PSD-95 density in primary cortical neuron culture; type: cell-based, rat
Protocol: Methods: 1. Primary cultures of neurons were prepared as follows. Newborn rats were sacrificed on postnatal day 1. Cerebral cortex tissue was then dissected and dissociated individually from each pup with the Papain Dissociation System (PDS; Worthington Biochemical Corporation) according to the manufacturer's instructions. 2. Cells were fixed with ice cold methanol, blocked with 2% bovine serum albumin (BSA) and 5% normal goat serum in Tris buffered saline containing tween 20 (TBS-T; 20 mM Tris pH 7.5, 136.8 mM NaCl, and 0.05% v/v Tween 20), and incubated with primary antibody followed by the appropriate secondary antibody. 3. Primary antibodies that were used include: monoclonal anti PSD-95 (ab-2723, Abcam), monoclonal anti Tyr-α-tubulin antibody (YL1/2) (VMA1864, Abcys, Paris, France), polyclonal anti Glu-α-tubulin antibody (L4) (AbC0101, Abcys, Paris, France), DyLight 488-labeled secondary goat anti-mouse IgG, DyLight 633-labeled secondary goat anti-rabbit IgG (KPL, Gaithersburg, Md., USA), Cy3-conjugated secondary goat anti-Rat IgG, (Jackson ImmunoResearch). 4. Images were collected with a Leica SP5 confocal laser scanning microscope (Mannheim, Germany) with 63× oil immersion optics, laser lines at 488, 561, 633 nm. Identical confocal laser scanning microscopy (CLSM) parameters (e.g., scanning line, laser light, gain, and offset etc.) were used for control and NAP treated cells.
For instance, a PSD-95 expression assay using primary cortical neuron cultures established from suitable animals may be performed to confirm a compound's activity in promoting cell plasticity. More specifically, primary cultures of neurons are prepared by first taking cerebral cortex tissue from newborn rats on postnatal day 1. The cerebral cortex tissue is then dissected and dissociated individually from each animal. Cells are fixed with ice cold methanol, blocked (e.g., with bovine serum albumin (BSA) and normal goat serum), and incubated with primary antibody (e.g., monoclonal antibody against PSD-95), optionally followed by the appropriate secondary antibody for imaging purposes. Images of primary neuronal cultures are taken and compared between cultures with or without being exposed to a test compound. An increased PSD-95 expression is indicative of the test compound being capable of promoting or protecting cell plasticity, especially neuronal plasticity.
Cerebral cortex tissue from newborn rats was dissected and dissociated individually from each pup with the Papain Dissociation System (PDS), (Worthington Biochemical Corporation) according to the manufacturer's instructions. Cortical neurons were maintained in Neurobasal medium (NB), (Gibco) supplemented with NeuroCult B27-SM1 ([…]), 1% Glutamax (Gibco), and grown on poly-D-lysine-coated cell culture glass cover slips.
Images were collected with a Leica SP5 confocal laser scanning microscope (Mannheim, Germany) with 63× oil immersion optics, laser lines at 488, 561, 633 nm or with LSM 510 META (Zeiss, Jena, Germany) confocal laser scanning microscope with 63× oil immersion optics, laser lines at 488, 568, 633 nm. When comparing fluorescence intensities, identical CLSM parameters (e.g., scanning line, laser light, gain, and offset etc.) were used. All of the fluorescent signals acquired were above the autofluorescent background as measured from a control slide stained with secondary antibody without a primary antibody. To compare the relative levels of protein expression, the average integrated density (AID) image analysis procedure was used for cell immunostains. In brief, integrated density is defined by the sum of the values of the pixels in the selected region of interest (ROI). This is equivalent to the product of Area and Mean Gray Value. AID for the positive stained area was determined by measuring the fluorescent intensity of the ROI, which is above the positive cut-off intensity. […]

rat brain extracts = assay: NAP / D-SAL affinity chromatography with rat brain extracts, mass spectrometry; type: binding; conditions: repeated twice
Protocol: The affinity chromatography column included SulfoLink® Immobilization Kit for Peptides (44999, Thermo Scientific, Rockford, Ill., USA). Binding of […] was performed according to the manufacturers' instruction. Recombinant protein was loaded (2 mg/mL) on the columns (2 mL) and incubated overnight at 4° C.; the columns were then washed with phosphate-buffered saline until all unbound protein was eluted [as confirmed by protein assay (Bradford; Bio-Rad Laboratories, Mannheim, Germany)]. NAP-binding proteins were eluted in IgG Elution buffer (pH 2.8) (Thermo scientific). […] Sodium dodecyl sulfate-polyacrylamide gel electrophoresis (SDS-PAGE) was then performed followed by western blot analysis in order to detect the protein (R. Zamostiano et al., J Biol Chem 276, 708 (Jan. 5, 2001)).
Affinity chromatography was carried out as above with rat brain extracts as before (34, 36). However, several additional experiments were undertaken and mass spectrometry was employed to identify additional potential NAP-interacting proteins that elute from the affinity column.

PC12 cells [1] = assay: PC12 cell survival assay, zinc toxicity, MTS (Example 1); conditions: for protection against zinc-induced PC12 cell death (MTS) with EB3 silenced: RNA silencing of EB3
Protocol: PC12 cells (Pheochromocytoma cells) (ATCC, Bethesda, Md., USA) were seeded at 3×10^4 cells/cm^2 on poly-L-Lysine coated plastic tissue culture dishes (Corning, Lowell, Mass., USA) to form an adherent monolayer. Cells were maintained in Dulbecco's modified Eagle's medium (DMEM) supplemented with 10% horse serum (HS), 5% fetal calf serum (FCS), 2 mM glutamine, 100 U/ml penicillin and […] streptomycin (Biological Industries, Beit Haemek, Israel). PC12 differentiation was induced by nerve growth factor (NGF, Sigma) at concentrations of 50 ng/ml by replacing half of the medium every other day until the cells acquired a differentiated morphology. Differentiated cells were defined as bearing two or more neurites with lengths equal to or more than twice the diameter of the cell body (P. Lamoureux et al., The Journal of cell biology 110, 71 (January, 1990)). The cells were incubated in 5% CO2 in a humidified incubator at 37° C. The cells were sub-cultured every 5 days at a 4:1 split ratio by pipetting. The medium was changed every 2 or 3 days after adhesion.
Transfections were performed using Lipofectamine RNAiMAX (Invitrogen). Transfection was carried out according to manufacturer's protocol. For rat MAPRE3 knockdown, PC12 cells or neurons were plated in growth medium without antibiotics at concentration of 10^4 cells/0.32 cm^2 such that they will be 30-50% confluent at the time of transfection. To obtain the highest transfection efficiency and low non-specific effects, siRNA transfection was performed in the following optimized conditions: 50 nM for neurons and 25 nM PC12 of each siRNA construct with 0.2 μl Lipofectamine RNAiMAX (Invitrogen) was added per well of the 96-well plate and scaled up for different 24 or 6-well plates, according to the manufacturer's instructions. The medium was changed one day after transfection. 48 and 72 hours later, cells were harvested to assay for gene knockdown at the RNA and protein levels.
The cells were incubated for 4 hrs at 37° C. 5% CO2. Survival was measured using the MTS assay.
Metabolic activity of cells was measured by the CellTiter 96® Aqueous Non-Radioactive Cell Proliferation kit in accordance with the manufacturer's instructions (Promega). The assay uses a colorimetric method for determining the number of viable cells employing a tetrazolium compound [3-(4,5-dimethylthiazol-2-yl)-5-(3-carboxymethoxyphenyl)-2-(4-sulfophenyl)-2H-tetrazolium, MTS] and an electron-coupling reagent, phenazine methosulfate (PMS). MTS is bio-reduced by cells into a formazan product that is detected at 490 nm. The conversion of MTS into the formazan form is accomplished by dehydrogenase enzymes found in metabolically active cells. Thus, the quantity of formazan product as measured by the amount of 490 nm absorbance is directly proportional to the number of living cells in culture (A. H. Cory, T. C. Owen, J. A. Barltrop, J. G. Cory, Cancer Commun 3, 207 (July, 1991)).

PC12 cells [2] = conditions: previously published data, read-out: EC50 for zinc cell killing effect; cited from earlier work
PC12 cells [3] = conditions: ZnCl2 400 μM, 4 h
Protocol: FIG. 15: Rat pheochromocytoma cells (PC12) were seeded on Poly-D-Lysine coated 96-well tissue culture dishes in high concentration (30,000 cells/well). On the day of the experiment the cells were treated with ZnCl2 (400 μM) either alone or in combination with different concentration of SKIP for 4 h. After 4 h the cell viability was analyzed by MTS assay. […] All values are from one experiment performed in hexplicate.
Rat pheochromocytoma cell (PC12, ATCC, Bethesda, Md., USA) were grown in 10-cm tissue culture dishes (Corning). The base medium for this cell line was RPMI-1640 Medium (Invitrogen) supplemented with 10% heat-inactivated horse serum, 5% fetal bovine serum and solution containing 100 U/ml penicillin together with […] streptomycin (Biological Industries, Beit Haemek, Israel). The cells were incubated in 95% air; 5% CO2 in a humidified incubator at 37° C. The medium was changed every 2 to 3 days. The cells were subcultured when cell density reached 4×10^6 cells/ml. The cells were split in a ratio of 1:4.
On the day before the experiment cells were to be harvested, re-suspended and seeded on tissue culture dishes. For cell viability measurements, cells were seeded on Poly-D-Lysine coated 96-well tissue culture dishes (Sigma-Aldrich) at a concentration of 3×10^4 cells/well.
The cell viability is measured by colorimetric method that determines the number of viable cells in culture. This method is based on the bio-reduction of the tetrazolium compound [3-(4,5-dimethylthiazol-2-yl)-5-(3-carboxymethoxyphenyl)-2-(4-sulfophenyl)-2H-tetrazolium; MTS] by living cells into a colored formazan product. This reaction is occurring in the presence of an electron coupling reagent (phenazine ethosulfate; PES). The amount of formazan product is measured by ELISA plate reader at 490 nm and is directly proportional to the number of living cells in culture (CellTiter 96® AQueous One Solution Cell Proliferation Assay; Promega, Madison, Wis., USA).

| Compound | effect on PSD-95 expression with EB3 silencing (primary cortical neurons; 10^−12M NAP, 48 hours siRNA against EB3) | increase in PSD-95 expression (primary cortical neurons; 10^−12M, 2 hrs, 13 DIV cortical neurons (FIG. 10d)) [%] | PSD-95 expression in dendrites (FIG. 11) (primary cortical neurons; 10^−12M, DIV 13, 2 hours) | density of PSD-95 puncta vs vehicle controls (primary cortical neurons; NAP 10^−18M-10^−9M, DIV 13, 2 hrs) | peak effect on density of PSD-95 over control (primary cortical neurons; NAP concentration of 10-12M, 2 hours) [%] | derivative peptides effect on PSD-95 density vs vehicle controls (FIG. 10c) (primary cortical neurons; neurons treated for 2 hrs) | interaction with drebrin (affinity column eluate, mass spectrometry) (rat brain extracts) | protection against cell death induced by zinc toxicity (MTS survival) (PC12 cells [1]; 400 μM zinc, 4 hrs, peptide 10^−9M) | protection against cell death induced by zinc toxicity (MTS) (PC12 cells [1]; 400 μM zinc, 4 hrs, peptide 10^−15M) | protection against zinc-induced PC12 cell death (MTS) with EB3 silenced (PC12 cells [1]; 500 microM zinc, NAP 10^−15M) | protection against zinc-induced PC12 cell death (MTS) with EB3 silenced (PC12 cells [1]; 500 microM zinc, NAP 10^−15M, listed as NAPVSIPQ) | protection against zinc-induced PC12 cell death (MTS) (PC12 cells [1]; 500 microM zinc, NAP 10^−15M, control situations (non-specific siRNA, no treatment)) | EC50 (PC12 cells [2]) [µM] | zinc concentration at which significant cell death was observed (PC12 cells [1]; PC12 cells, 4 hrs, data not shown) [µM] | reduction of cell viability by zinc (PC12 cells [1]; vs control without zinc) [%] | cell death from zinc treatment (PC12 cells [3]) [%] |
| --- | --- | --- | --- | --- | --- | --- | --- | --- | --- | --- | --- | --- | --- | --- | --- | --- |
| CC[C@H](C)[C@H](NC(=O)[C@H](CO)NC(=O)[C@@H](NC(=O)[C@@H]1CCCN1C(=O)[C@H](C)NC(=O)[C@@H](N)CC(N)=O)C(C)C)C(=O)N1CCC[C@H]1C(=O)N[C@@H](CCC(N)=O)C(=O)O [NAP] | abolished NAP activity; also recorded: completely inhibited | 75 | enhances PSD-95 expression | significantly increased | 50 | significantly increased | specific interaction | significant protection effect; also recorded: significantly increased survival | significant protection effect | not in the presence of EB3 silencing | does not protect | protected against by NAP treatment; also recorded: protects in the control situations | – | – | – | – |
| [Cl-].[Cl-].[Zn+2] [zinc, ZnCl2] | – | – | – | – | – | – | – | – | – | – | – | – | 308 ± 38 | > 200 | ~25 | ~20 |
